Laboratory results from patent publication US9914720B2, “Crystalline form of (S)-(2-(6-chloro-7-methyl-1H-benzo[D]imidazol-2-yl)-2-methylpyrrolidin-1-yl)(5-methoxy-2-(2H-1,2,3-triazol-2-yl)phenyl)methanone and its use as orexin receptor antagonists” (IDORSIA PHARMACEUTICALS LTD, priority 2013, dated 2018).

Key:
[1] = Gravimetric vapour sorption (GVS) analysis, hygroscopicity; type: physicochemical; conditions: GVS at 25° C.; for Hygroscopicity: mass change: between 40% and 80% relative humidity; for Hygroscopicity: sorption of moisture mass/mass: humidity program 40-0-95-0-95-40% RH, maximum sorption with hysteresis
Method: Gravimetric Vapour Sorption (GVS) Analysis
The sample was allowed to equilibrate at 40% RH before starting a pre-defined humidity program (40-0-95-0-95-40% RH, steps of 5% ΔRH and with a maximal equilibration time of 24 hours per step were applied. About 20 to 30 mg of each sample was used. The hygroscopic classification is done according to the European Pharmacopeia Technical Guide (1999, page 86), e.g., slightly hygroscopic: increase in mass is less than 2% and equal to or greater than 0.2% mass/mass; hygroscopic: increase in mass is less than 15% and equal to or greater than 2% mass/mass. The mass change between 40% relative humidity and 80% relative humidity in the first adsorption scan is considered.

Wistar rats = test: Sedative effects: EEG, EMG and behavioural indices of alertness recorded by radiotelemetry; type: in vivo; conditions: 30 mg/kg po, effects analyzed over 6 hours
Method: Sedative Effects: EEG, EMG and Behavioural Indices of Alertness Recorded by Radiotelemetry In Vivo in Wistar Rats.
Electroencephalography (EEG) and Electromyography (EMG) signals were measured by telemetry using TL11M2-F20-EET miniature radiotelemetric implants (Data Science Int.) with two pairs of differential leads.
Surgical implantation was performed under general anesthesia with Ketamin/Xylazin, for cranial placement of one differential pair of EEG electrodes and one pair of EMG leads inserted in either side of the muscles of the neck. After surgery, rats recovered in a thermoregulated chamber and received analgesic treatment with subcutaneous buprenorphine twice a day for 2 d. They were then housed individually and allowed to recover for a minimum of 2 weeks. Thereafter, rats—in their home cage—were placed in a ventilated sound-attenuating box, on a 12-h light/12-h dark cycle, for acclimatization before continuous EEG/EMG recordings started. The telemetric technology that we used in this study allows accurate and stress-free acquisition of biosignals in rats placed in their familiar home cage environment, with no recording leads restricting their movements. Variables analyzed included four different stages of vigilance and sleep, spontaneous activity in the home cage and body temperature. Sleep and wake stages were evaluated using a rodent scoring software (Somnologica Science) directly processing electrical biosignals on 10 s contiguous epochs. The scoring is based on frequency estimation for EEG and amplitude discrimination for EMG and locomotor activity. Using these measurements, the software determines the probability that all components within each epoch best represent active waking (AW), quiet waking (QW), non-REM-sleep (NREM) or REM-sleep (REM). The percentage of total time spent in AW, QW, NREM- and REM-sleep was calculated per 12 h light or dark period. The latency to the onset of the first significant NREM- and REM-sleep episodes and the frequency and duration of those episodes were also calculated. […] All variables were subsequently recorded for 12 h following administration of the orexin receptor antagonist.

[2] = Measurement of brain and systemic concentration after oral administration; type: in vivo; conditions: 3 h after oral administration (100 mg/kg), n=3, male wistar rats
Method: Measurement of Brain and Systemic Concentration after Oral Administration:
Samples are collected in the same animal at the same time point (+/−5 min). Blood is sampled from the vena cava caudalis into containers with EDTA as anticoagulant and centrifuged to yield plasma. Brain is sampled after cardiac perfusion of 10 mL NaCl 0.9% and homogenized into one volume of cold phosphate buffer (pH 7.4). All samples are extracted with MeOH and analyzed by LC-MS/MS. Concentrations are determined with the help of calibration curves.

COc1ccc(-n2nccn2)c(C(=O)N2CCC[C@@]2(C)c2nc3c(C)c(Cl)ccc3[nH]2)c1 [COMPOUND as free base in amorphous form, [(S)-2-(5-chloro-4-methyl-1H-benzoimidazol-2-yl)-2-methyl-pyrrolidin-1-yl]-(5-methoxy-2-[1,2,3]triazol-2-yl-phenyl)-methanone]
Hygroscopicity: mass change ([1]; first adsorption scan): about 0.7%), Hysteresis and sorption
Hygroscopicity: sorption of moisture mass/mass [1]: of up to 2.7% moisture mass/mass.

COc1ccc(-n2nccn2)c(C(=O)N2CCC[C@@]2(C)c2nc3c(C)c(Cl)ccc3[nH]2)c1 [COMPOUND in crystalline form 1, (S)-(2-(6-chloro-7-methyl-1H-benzo[d]imidazol-2-yl)-2-methylpyrrolidin-1-yl)(5-methoxy-2-(2H-1,2,3-triazol-2-yl)phenyl)methanone]
Hygroscopicity (hygroscopic classification) ([1]; European Pharmacopeia Technical Guide classification, 40% to 80% RH, first adsorption scan): Non hygroscopic (mass change smaller
Hygroscopicity: mass change ([1]; first adsorption scan): then 0.1%)

COc1ccc(-n2nccn2)c(C(=O)N2CCC[C@@]2(C)c2nc3c(C)c(Cl)ccc3[nH]2)c1 [COMPOUND, (S)-(2-(6-chloro-7-methyl-1H-benzo[d]imidazol-2-yl)-2-methylpyrrolidin-1-yl)(5-methoxy-2-(2H-1,2,3-triazol-2-yl)phenyl)methanone]
effect on NREM sleep compared to vehicle controls (Wistar rats): +27%
effect on REM sleep compared to vehicle controls (Wistar rats): +53%
effect on active wake compared to vehicle controls (Wistar rats): −24%
effect on home cage activity compared to vehicle controls (Wistar rats): −31%
concentration in brain [B] [2]: 1808 ng/g
concentration in plasma [P] [2]: 1280 ng/mL

COc1ccc(-n2nccn2)c(C(=O)N2CCC[C@@]2(C)c2nc3c(C)c(Cl)ccc3[nH]2)c1 [COMPOUND in crystalline form 2, (S)-(2-(6-chloro-7-methyl-1H-benzo[d]imidazol-2-yl)-2-methylpyrrolidin-1-yl)(5-methoxy-2-(2H-1,2,3-triazol-2-yl)phenyl)methanone]
Hygroscopicity: mass change ([1]; first adsorption scan): about 0.7%)
Hygroscopicity: sorption of moisture mass/mass [1]: ≤ 1.1% moisture mass/mass.
